Experimental data from PubChem BioAssay (NCI).
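These data come from cells grown in 96-well plates and exposed to compound for 48 hours at five concentrations. TGI marks complete inhibition of growth.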

Legend:
Test in all cases: DTP human tumour cell line panel, 48 h
[1] = test system: NCI-H460 lung
[2] = test system: BT-549 breast
[3] = test system: OVCAR-3 ovarian
[4] = test system: SK-OV-3 ovarian
[5] = test system: HCT-15 colon
[6] = test system: UACC-257 melanoma
[7] = test system: PC-3 prostate
[8] = test system: TK-10 renal
[9] = test system: SW-620 colon
[10] = test system: U251 CNS
[11] = test system: SK-MEL-28 melanoma
[12] = test system: MALME-3M melanoma
[13] = test system: M14 melanoma
[14] = test system: MDA-MB-435
[15] = test system: HOP-92 NSCLC
[16] = test system: EKVX NSCLC
[17] = test system: HCT-116 colon
[18] = test system: UO-31 renal
[19] = test system: SK-MEL-5 melanoma
[20] = test system: SNB-75 CNS
[21] = test system: COLO 205 colon
[22] = test system: IGROV1 ovarian
[23] = test system: MCF7 breast
[24] = test system: A498 renal
[25] = test system: A549 NSCLC
[26] = test system: LOX IMVI melanoma
[27] = test system: SK-MEL-2 melanoma
[28] = test system: SF-268 CNS
[29] = test system: NCI-H522 lung
[30] = test system: HL-60(TB) leukemia
[31] = test system: SF-539 CNS
[32] = test system: SF-295 CNS
[33] = test system: RXF 393 renal
[34] = test system: RPMI-8226 leukemia
[35] = test system: KM12 colon
[36] = test system: UACC-62 melanoma
[37] = test system: HCC-2998 colon
[38] = test system: HS 578T breast
[39] = test system: CAKI-1 renal
[40] = test system: NCI/ADR-RES ovarian
[41] = test system: SNB-19 CNS
[42] = test system: CCRF-CEM leukemia
[43] = test system: OVCAR-5 ovarian
[44] = test system: OVCAR-4 ovarian
[45] = test system: NCI-H226 lung
[46] = test system: MDA-N
[47] = test system: T-47D breast
[48] = test system: OVCAR-8 ovarian
[49] = test system: NCI-H23 lung
[50] = test system: ACHN renal
[51] = test system: HT29 colon
[52] = test system: DU-145 prostate
[53] = test system: HOP-62 NSCLC
[54] = test system: MDA-MB-231 breast
[55] = test system: K-562 leukemia
[56] = test system: MOLT-4 leukemia
[57] = test system: SN12C renal
[58] = test system: 786-0 renal

SMILES: Cc1cc2nc(CC(C(F)(F)F)C(F)(F)F)oc2cc1C
- TGI [1]: 15.3 µM
- TGI [2]: 6.65 µM
- TGI [3]: 14.2 µM
- TGI [4]: > 44.4 µM
- TGI [5]: 26.8 µM
- TGI [6]: 9.55 µM
- TGI [7]: 5.43 µM
- TGI [8]: 39.7 µM
- TGI [9]: 2.83 µM
- TGI [10]: 9.41 µM
- TGI [11]: 15.8 µM
- TGI [12]: 9.32 µM
- TGI [13]: 4.72 µM
- TGI [14]: 5.64 µM
- TGI [15]: 28.9 µM
- TGI [16]: 7.6 µM
- TGI [17]: 2.64 µM
- TGI [18]: 26.2 µM
- TGI [19]: 12.2 µM
- TGI [20]: 16.3 µM
- TGI [21]: 4.98 µM
- TGI [22]: 10.1 µM
- TGI [23]: 24.1 µM
- TGI [24]: 26.3 µM
- TGI [25]: 30.1 µM
- TGI [26]: 1.44 µM
- TGI [27]: 9.85 µM
- TGI [28]: 8.2 µM
- TGI [29]: 1.13 µM
- TGI [30]: 12.5 µM
- TGI [31]: 7.66 µM
- TGI [32]: 18.6 µM
- TGI [33]: 9.73 µM
- TGI [34]: 1.61 µM
- TGI [35]: 10.3 µM
- TGI [36]: 3.64 µM
- TGI [37]: 11.8 µM
- TGI [38]: 16.6 µM
- TGI [39]: 5.13 µM
- TGI [40]: > 43.3 µM
- TGI [41]: 17.5 µM
- TGI [42]: > 100 µM
- TGI [43]: 25.7 µM
- TGI [44]: 6.92 µM
- TGI [45]: 4.81 µM
- TGI [46]: 5.85 µM
- TGI [47]: 10.7 µM
- TGI [48]: 3.23 µM
- TGI [49]: 8.15 µM
- TGI [50]: 20.7 µM
- TGI [51]: 7.91 µM
- TGI [52]: 16.4 µM
- TGI [53]: 17.2 µM
- TGI [54]: 9.09 µM

SMILES: CC1=C(C(=O)NCCCN(CCO)CCO)CC(C(=O)NCCCN(CCO)CCO)=C(C)N1
- TGI [1]: > 100 µM
- TGI [2]: > 100 µM
- TGI [3]: > 100 µM
- TGI [4]: > 100 µM
- TGI [5]: > 100 µM
- TGI [6]: > 100 µM
- TGI [7]: > 100 µM
- TGI [55]: > 100 µM
- TGI [8]: > 100 µM
- TGI [9]: > 100 µM
- TGI [10]: > 100 µM
- TGI [56]: > 100 µM
- TGI [13]: > 100 µM
- TGI [14]: > 100 µM
- TGI [15]: > 100 µM
- TGI [16]: > 100 µM
- TGI [17]: > 100 µM
- TGI [18]: > 100 µM
- TGI [19]: 95.7 µM
- TGI [20]: 80 µM
- TGI [21]: > 100 µM
- TGI [22]: > 100 µM
- TGI [23]: > 100 µM
- TGI [24]: > 100 µM
- TGI [25]: > 100 µM
- TGI [26]: > 100 µM
- TGI [27]: > 100 µM
- TGI [28]: > 100 µM
- TGI [29]: > 100 µM
- TGI [30]: > 100 µM
- TGI [31]: > 100 µM
- TGI [32]: > 100 µM
- TGI [33]: > 100 µM
- TGI [34]: > 100 µM
- TGI [35]: > 100 µM
- TGI [36]: > 100 µM
- TGI [37]: > 100 µM
- TGI [38]: > 100 µM
- TGI [39]: > 100 µM
- TGI [40]: > 100 µM
- TGI [41]: > 100 µM
- TGI [42]: 77.9 µM
- TGI [43]: > 100 µM
- TGI [44]: > 100 µM
- TGI [45]: > 100 µM
- TGI [57]: > 100 µM
- TGI [46]: > 100 µM
- TGI [47]: > 100 µM
- TGI [48]: > 100 µM
- TGI [49]: > 100 µM
- TGI [58]: > 100 µM
- TGI [50]: > 100 µM
- TGI [51]: > 100 µM
- TGI [52]: > 100 µM
- TGI [53]: > 100 µM
- TGI [54]: > 100 µM

SMILES: COc1cc2c(cc1OC)-c1[nH]c3ccc([N+](=O)[O-])cc3c1CC(=O)N2
- TGI [1]: 6.4 µM
- TGI [2]: > 100 µM
- TGI [3]: 1.61 µM
- TGI [4]: > 29.8 µM
- TGI [5]: > 100 µM
- TGI [6]: 47.1 µM
- TGI [7]: 99.4 µM
- TGI [55]: > 100 µM
- TGI [8]: 8.92 µM
- TGI [9]: > 100 µM
- TGI [10]: > 100 µM
- TGI [56]: > 76.4 µM
- TGI [11]: > 100 µM
- TGI [12]: 9.34 µM
- TGI [13]: > 100 µM
- TGI [14]: > 100 µM
- TGI [15]: > 100 µM
- TGI [16]: > 84.3 µM
- TGI [18]: > 23.8 µM
- TGI [19]: 5.87 µM
- TGI [20]: 8.93 µM
- TGI [21]: 0.811 µM
- TGI [22]: > 100 µM
- TGI [23]: 34.9 µM
- TGI [24]: 8.31 µM
- TGI [25]: > 100 µM
- TGI [26]: > 100 µM
- TGI [27]: > 52.3 µM
- TGI [30]: 7.31 µM
- TGI [31]: 0.716 µM
- TGI [32]: > 87.8 µM
- TGI [33]: 4.82 µM
- TGI [34]: 47.8 µM
- TGI [35]: > 56.1 µM
- TGI [36]: > 100 µM
- TGI [37]: 5.6 µM
- TGI [38]: > 100 µM
- TGI [39]: > 26.9 µM
- TGI [40]: > 100 µM
- TGI [41]: > 100 µM
- TGI [42]: > 37.6 µM
- TGI [43]: > 83.2 µM
- TGI [44]: > 32.1 µM
- TGI [45]: 1.66 µM
- TGI [57]: > 55.1 µM
- TGI [46]: > 100 µM
- TGI [47]: > 60.5 µM
- TGI [48]: > 100 µM
- TGI [49]: > 100 µM
- TGI [58]: > 100 µM
- TGI [50]: 6.2 µM
- TGI [51]: > 100 µM
- TGI [52]: > 100 µM
- TGI [53]: 9.81 µM
- TGI [54]: > 100 µM

SMILES: O=C1c2ccccc2C(=O)c2c(NCC3CO3)cccc21 (stereo not drawn)
- TGI [1]: > 100 µM
- TGI [2]: 66.8 µM
- TGI [3]: > 45.8 µM
- TGI [4]: > 100 µM
- TGI [5]: 32 µM
- TGI [6]: > 100 µM
- TGI [7]: > 57 µM
- TGI [55]: 17.3 µM
- TGI [8]: > 100 µM
- TGI [9]: 12.7 µM
- TGI [10]: > 100 µM
- TGI [56]: 14.7 µM
- TGI [11]: > 63.7 µM
- TGI [12]: > 100 µM
- TGI [13]: 27.6 µM
- TGI [14]: 20 µM
- TGI [15]: > 100 µM
- TGI [16]: > 57.6 µM
- TGI [17]: 17.6 µM
- TGI [18]: 22.5 µM
- TGI [19]: > 95.7 µM
- TGI [20]: > 100 µM
- TGI [21]: > 100 µM
- TGI [22]: > 60.3 µM
- TGI [23]: 7.14 µM
- TGI [24]: > 100 µM
- TGI [25]: > 100 µM
- TGI [26]: 5.38 µM
- TGI [27]: 32 µM
- TGI [28]: 17.9 µM
- TGI [29]: > 100 µM
- TGI [30]: 15.8 µM
- TGI [31]: > 100 µM
- TGI [32]: > 100 µM
- TGI [33]: 20.6 µM
- TGI [34]: > 85 µM
- TGI [35]: > 76.3 µM
- TGI [36]: > 45.9 µM
- TGI [37]: > 100 µM
- TGI [38]: > 100 µM
- TGI [39]: 77.3 µM
- TGI [40]: 38 µM
- TGI [41]: > 100 µM
- TGI [42]: 7.71 µM
- TGI [43]: > 100 µM
- TGI [44]: > 100 µM
- TGI [45]: > 100 µM
- TGI [57]: 20.1 µM
- TGI [46]: 23.7 µM
- TGI [47]: > 100 µM
- TGI [48]: 24.8 µM
- TGI [49]: > 40.4 µM
- TGI [58]: > 47.9 µM
- TGI [50]: 31.4 µM
- TGI [51]: > 86 µM
- TGI [52]: > 34.3 µM
- TGI [53]: > 100 µM
- TGI [54]: > 75 µM
